Assay results: PMC11007702 (ACS Omega, 2024)

What was measured:
Assay type in all cases: biochemical
[1] = molecular target: EGFR^WT (Homo sapiens, UniProt P00533); assay: in vitro EGFR kinase inhibition assay
[2] = molecular target: VEGFR-2 (Homo sapiens, UniProt P35968); assay: in vitro kinase inhibition
[3] = molecular target: EGFR^T790M (Homo sapiens, UniProt P00533, T790M); assay: in vitro EGFR kinase inhibition assay
Chain of EGFR^T790M (P00533 669-1210 T790M limits assumed): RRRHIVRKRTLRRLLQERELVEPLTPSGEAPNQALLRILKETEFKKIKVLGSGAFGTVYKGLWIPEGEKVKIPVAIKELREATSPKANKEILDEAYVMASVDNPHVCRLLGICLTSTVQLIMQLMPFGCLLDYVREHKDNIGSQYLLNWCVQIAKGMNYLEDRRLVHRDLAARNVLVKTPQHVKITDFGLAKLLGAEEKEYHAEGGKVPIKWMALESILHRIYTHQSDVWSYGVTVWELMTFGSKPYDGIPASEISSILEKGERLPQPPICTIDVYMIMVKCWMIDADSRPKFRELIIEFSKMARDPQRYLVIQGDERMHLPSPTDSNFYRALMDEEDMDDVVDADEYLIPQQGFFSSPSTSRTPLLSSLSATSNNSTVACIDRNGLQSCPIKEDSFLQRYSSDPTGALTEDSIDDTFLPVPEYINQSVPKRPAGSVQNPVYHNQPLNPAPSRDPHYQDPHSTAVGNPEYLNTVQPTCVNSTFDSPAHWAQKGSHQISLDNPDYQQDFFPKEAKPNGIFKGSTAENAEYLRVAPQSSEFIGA

Chain of VEGFR-2 (P35968 20-1356): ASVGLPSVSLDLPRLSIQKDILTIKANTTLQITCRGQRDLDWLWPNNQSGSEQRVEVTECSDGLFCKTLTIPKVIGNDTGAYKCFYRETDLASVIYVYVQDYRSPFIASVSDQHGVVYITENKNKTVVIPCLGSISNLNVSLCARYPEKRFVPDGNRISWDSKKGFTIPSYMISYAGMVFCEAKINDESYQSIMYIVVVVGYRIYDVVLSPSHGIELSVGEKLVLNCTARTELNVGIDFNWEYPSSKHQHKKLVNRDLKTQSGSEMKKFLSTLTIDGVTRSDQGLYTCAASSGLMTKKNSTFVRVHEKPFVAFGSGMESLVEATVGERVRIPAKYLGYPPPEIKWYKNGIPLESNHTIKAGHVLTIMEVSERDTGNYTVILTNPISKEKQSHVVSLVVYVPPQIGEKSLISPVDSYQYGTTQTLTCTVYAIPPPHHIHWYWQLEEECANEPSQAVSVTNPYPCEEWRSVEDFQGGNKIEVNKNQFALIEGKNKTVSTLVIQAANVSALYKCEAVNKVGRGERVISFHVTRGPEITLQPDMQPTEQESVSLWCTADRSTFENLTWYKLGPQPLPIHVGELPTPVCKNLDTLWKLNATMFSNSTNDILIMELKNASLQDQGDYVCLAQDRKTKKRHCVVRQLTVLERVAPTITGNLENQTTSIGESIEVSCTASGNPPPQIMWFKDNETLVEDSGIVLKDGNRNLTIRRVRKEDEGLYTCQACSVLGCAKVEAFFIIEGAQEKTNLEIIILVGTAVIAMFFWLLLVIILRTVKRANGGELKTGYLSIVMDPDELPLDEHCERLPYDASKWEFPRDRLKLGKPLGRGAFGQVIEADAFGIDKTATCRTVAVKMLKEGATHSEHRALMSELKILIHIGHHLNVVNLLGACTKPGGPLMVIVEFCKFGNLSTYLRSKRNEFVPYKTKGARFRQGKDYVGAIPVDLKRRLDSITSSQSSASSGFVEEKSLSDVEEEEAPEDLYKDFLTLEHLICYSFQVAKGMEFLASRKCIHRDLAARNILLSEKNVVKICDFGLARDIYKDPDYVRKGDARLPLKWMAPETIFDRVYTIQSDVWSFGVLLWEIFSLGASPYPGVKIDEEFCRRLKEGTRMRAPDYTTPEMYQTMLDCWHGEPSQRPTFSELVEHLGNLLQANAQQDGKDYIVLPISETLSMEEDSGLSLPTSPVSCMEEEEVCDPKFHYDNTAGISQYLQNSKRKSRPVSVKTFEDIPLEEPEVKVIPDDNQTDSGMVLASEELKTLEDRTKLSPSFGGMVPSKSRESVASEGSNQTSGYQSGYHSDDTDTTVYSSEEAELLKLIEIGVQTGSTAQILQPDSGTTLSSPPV
Chain of EGFR^WT (P00533 25-1210): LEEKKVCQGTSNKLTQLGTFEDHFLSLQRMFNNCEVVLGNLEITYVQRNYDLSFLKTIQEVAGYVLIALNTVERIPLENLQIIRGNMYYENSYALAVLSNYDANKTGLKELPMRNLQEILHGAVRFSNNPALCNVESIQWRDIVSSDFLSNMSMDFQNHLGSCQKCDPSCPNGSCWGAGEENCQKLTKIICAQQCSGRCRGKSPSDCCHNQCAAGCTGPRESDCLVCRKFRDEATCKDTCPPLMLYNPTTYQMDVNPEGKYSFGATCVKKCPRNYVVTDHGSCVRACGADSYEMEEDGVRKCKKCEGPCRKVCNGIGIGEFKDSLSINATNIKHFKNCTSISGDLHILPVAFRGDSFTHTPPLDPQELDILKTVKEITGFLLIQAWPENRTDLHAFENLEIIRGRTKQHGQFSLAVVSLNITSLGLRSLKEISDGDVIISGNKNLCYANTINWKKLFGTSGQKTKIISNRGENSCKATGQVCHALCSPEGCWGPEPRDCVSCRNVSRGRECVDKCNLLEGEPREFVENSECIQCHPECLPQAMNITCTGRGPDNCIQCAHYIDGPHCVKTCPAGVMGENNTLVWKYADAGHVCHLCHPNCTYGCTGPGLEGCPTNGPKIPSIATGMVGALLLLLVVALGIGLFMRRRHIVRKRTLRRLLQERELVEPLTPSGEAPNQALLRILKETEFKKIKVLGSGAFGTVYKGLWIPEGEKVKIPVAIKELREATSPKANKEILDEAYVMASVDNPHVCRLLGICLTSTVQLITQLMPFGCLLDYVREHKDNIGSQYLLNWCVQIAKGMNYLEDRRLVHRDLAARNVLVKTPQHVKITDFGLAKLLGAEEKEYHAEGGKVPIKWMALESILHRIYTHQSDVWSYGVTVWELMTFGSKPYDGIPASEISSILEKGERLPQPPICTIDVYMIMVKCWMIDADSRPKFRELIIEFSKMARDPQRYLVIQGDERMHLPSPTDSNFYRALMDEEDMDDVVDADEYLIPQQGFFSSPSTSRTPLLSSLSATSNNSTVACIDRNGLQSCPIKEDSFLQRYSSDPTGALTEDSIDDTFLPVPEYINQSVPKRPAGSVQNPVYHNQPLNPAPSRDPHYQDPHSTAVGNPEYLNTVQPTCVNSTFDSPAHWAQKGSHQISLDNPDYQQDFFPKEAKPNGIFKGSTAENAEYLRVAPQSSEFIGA

## Cc1ccc(NC(=O)Cn2c(=O)c3c(ncn3C)n(C)c2=O)cc1 [T-1-PMPA, 2-(3,7-Dimethyl-2,6-dioxo-2,3,6,7-tetrahydro-1H-purin-1-yl)-N-(p-tolyl)acetamide]
[1]
  IC50: 86 nM
[2]
  IC50: 2070 nM
[3]
  IC50: 562 nM
